Results published in PMC5458078, “Global mapping of CARM1 substrates defines enzyme specificity and substrate recognition” (Nature Communications, 2017).

What was measured:
MCF7 CARM1 KO cells = assay: Quantitative MS of ADMA-containing peptides in MCF7 CARM1 KO cells expressing CARM1 28-608 or CARM1 140-608, and in CARM1 KO; assay type: cell-based, human
MCF7 cells = assay: Quantitative nanoLC-MS/MS (TMT) of ADMA-containing peptides, CARM1 KO vs parental; assay type: cell-based, human; design: Fold change KO/WT: scale not given here
[1] = CARM1 140-608 vs WT, mean of 3 replicates (log2 scale)
[2] = KO vs WT, mean of 3 replicates (log2 scale)
[3] = MCF7, CARM1 KO (KO1-KO3) vs wild type (WT1-WT3)
[4] = ratio on log2 scale, mean of 3 replicates
[5] = MCF7, CARM1 knockout vs wild type, n = 3 each
[6] = CARM1 140-608 versus WT, difference of mean log2 values
[7] = CARM1 KO versus WT, difference of mean log2 values
[8] = CARM1 KO vs wild type MCF7 cells, 3 biological replicates each
[9] = MCF7, CARM1 KO vs WT, three biological replicates each
[10] = mean, CARM1 140-608 versus WT (log2 scale)
[11] = mean, CARM1 KO versus WT (log2 scale)
[12] = MCF7 CARM1 knockout vs wild type, 3 biological replicates each, values are on log2 scale
[13] = difference of log2 means, CARM1 140-608 vs WT
[14] = difference of log2 means, KO vs WT
[15] = ADMA-containing peptide, CARM1 knockout (KO) vs wild type (WT) MCF7 cells, 6-plex TMT experiment #1, three biological replicates each, sheet "MCF7"
[16] = log2 scale ratio, mean of n = 3
[17] = ADMA-containing peptide, MCF7, CARM1 knockout (KO1-3) vs wild type (WT1-3), TMT 6-plex experiment #1
[18] = CARM1 140-608 vs WT, mean of 3 replicates, log2
[19] = KO vs WT, mean of 3 replicates, log2

SGIILrSPrPDFrPrEPFLSrDPFHSLK
CARM1 140-608/WT (MCF7 CARM1 KO cells; [1]): -0.96
KO/WT (MCF7 CARM1 KO cells; [2]): -2.553
Fold change KO/WT (MCF7 cells; [3]): -2.553

SPLLNQPVPELSHASLIANQSPFrAPLNVTNTAGTSLPSVDLLQK
CARM1 140-608/WT (MCF7 CARM1 KO cells; [4]): -2.179
KO/WT (MCF7 CARM1 KO cells; [4]): -2.328
Fold change KO/WT (MCF7 cells; [5]): -2.328

ErDMQYVQR
CARM1 140-608/WT (MCF7 CARM1 KO cells; [6]): 0.06744
KO/WT (MCF7 CARM1 KO cells; [7]): 1.019
Fold change KO/WT (MCF7 cells; [8]): 1.019

LQEVSLrQGMr
CARM1 140-608/WT (MCF7 CARM1 KO cells; [4]): 0.07113
KO/WT (MCF7 CARM1 KO cells; [4]): -0.8557
Fold change KO/WT (MCF7 cells; [9]): -0.8557

AYGQQYWGQPGNrGGYRNFYDR
CARM1 140-608/WT (MCF7 CARM1 KO cells; [10]): -0.3814
KO/WT (MCF7 CARM1 KO cells; [11]): 1.342
Fold change KO/WT (MCF7 cells; [12]): 0.6249

QPPPLQQQArFIQPrPTLNQPPPPLIrPANSMPPR
CARM1 140-608/WT (MCF7 CARM1 KO cells; [1]): 1.096
KO/WT (MCF7 CARM1 KO cells; [2]): -1.373
Fold change KO/WT (MCF7 cells; [3]): -1.373

GPVGQALPrPQAPPrLQSLMGTVQQGAQSWQQR
CARM1 140-608/WT (MCF7 CARM1 KO cells; [13]): -1.639
KO/WT (MCF7 CARM1 KO cells; [14]): -3.859
Fold change KO/WT (MCF7 cells; [15]): -3.859

GrFPGAVPGGDrFPGPAGPGGPPPPFPGNLIK
CARM1 140-608/WT (MCF7 CARM1 KO cells; [4]): -1.24
KO/WT (MCF7 CARM1 KO cells; [4]): -2.782
Fold change KO/WT (MCF7 cells; [5]): -2.782

EIrYSLLPFANESGTSAAAEVNR
CARM1 140-608/WT (MCF7 CARM1 KO cells; [13]): -1.601
KO/WT (MCF7 CARM1 KO cells; [14]): -3.011
Fold change KO/WT (MCF7 cells; [12]): -3.011

MGTPVPRPPQDMGQIGVrTPLGPrVAAPVGPVGPTPTVLPMGAPVPRPR
CARM1 140-608/WT (MCF7 CARM1 KO cells; [1]): -1.595
KO/WT (MCF7 CARM1 KO cells; [2]): -3.449
Fold change KO/WT (MCF7 cells; [3]): -3.424

SAPFFIPTIPGLVPrYAAPEQNNDPQQSK
CARM1 140-608/WT (MCF7 CARM1 KO cells; [6]): -3.554
KO/WT (MCF7 CARM1 KO cells; [7]): -5.228
Fold change KO/WT (MCF7 cells; [8]): -5.228

KPLGTAPHCPrLPLRK
CARM1 140-608/WT (MCF7 CARM1 KO cells; [10]): -2.5902
KO/WT (MCF7 CARM1 KO cells; [11]): -4.08
Fold change KO/WT (MCF7 cells; [5]): -4.08

VSTSGPrAFSSrSYTSGPGSrISSSSFSR
CARM1 140-608/WT (MCF7 CARM1 KO cells; [13]): -2.338
KO/WT (MCF7 CARM1 KO cells; [14]): -2.338
Fold change KO/WT (MCF7 cells; [12]): -2.338

TPASTWASPrPLLNWSR
CARM1 140-608/WT (MCF7 CARM1 KO cells; [1]): -2.026
KO/WT (MCF7 CARM1 KO cells; [2]): -3.334
Fold change KO/WT (MCF7 cells; [3]): -3.334

NSCPGPLDSSAFLSSDFLLPEDPKPrLPPPPVPPPLLHYPPPAK
CARM1 140-608/WT (MCF7 CARM1 KO cells; [13]): -1.41
KO/WT (MCF7 CARM1 KO cells; [14]): -3.136
Fold change KO/WT (MCF7 cells; [15]): -3.136

SHLSTAGGLAVPSLPTAGPYYSPYALYGQrLASASALGYQ
CARM1 140-608/WT (MCF7 CARM1 KO cells; [6]): -2.31
KO/WT (MCF7 CARM1 KO cells; [7]): -2.998
Fold change KO/WT (MCF7 cells; [8]): -2.553

FAPrGAPHFrFIIAGR
CARM1 140-608/WT (MCF7 CARM1 KO cells; [16]): -0.6829
KO/WT (MCF7 CARM1 KO cells; [16]): -0.5952
Fold change KO/WT (MCF7 cells; [17]): -0.1223

DFAFYNPrLQGK
CARM1 140-608/WT (MCF7 CARM1 KO cells; [18]): -2.071
KO/WT (MCF7 CARM1 KO cells; [19]): -2.382
Fold change KO/WT (MCF7 cells; [9]): -2.168

GLPTTTQrVGVPTAVQNLAPrAAVAAAAPrAVAPYK
CARM1 140-608/WT (MCF7 CARM1 KO cells; CARM1 140-608 versus WT, mean of three replicates (log2)): -1.934
KO/WT (MCF7 CARM1 KO cells; KO versus WT, mean of three replicates (log2)): -2.638
Fold change KO/WT (MCF7 cells; [15]): -2.96

GArGLMNGYR
CARM1 140-608/WT (MCF7 CARM1 KO cells; [18]): 0.7786
KO/WT (MCF7 CARM1 KO cells; [19]): 0.02481
Fold change KO/WT (MCF7 cells; [9]): 0.02481

GPGGPrGGLGGGMR
CARM1 140-608/WT (MCF7 CARM1 KO cells; [10]): 0.09567
KO/WT (MCF7 CARM1 KO cells; [11]): -0.1983
Fold change KO/WT (MCF7 cells; [5]): 0.08213

FrPNPLNNPR
CARM1 140-608/WT (MCF7 CARM1 KO cells; [16]): 0.04278
KO/WT (MCF7 CARM1 KO cells; [16]): 0.4697
Fold change KO/WT (MCF7 cells; [17]): 0.07251

KPPNQSLPLQPFQLAFGHQVNrQVFrQGPPPPNPVAAFPPQK
CARM1 140-608/WT (MCF7 CARM1 KO cells; [4]): -2.162
KO/WT (MCF7 CARM1 KO cells; [4]): -3.229
Fold change KO/WT (MCF7 cells; [5]): -3.229

GQLFrLPSALNR
CARM1 140-608/WT (MCF7 CARM1 KO cells; [4]): -1.812
KO/WT (MCF7 CARM1 KO cells; [4]): -4.117
Fold change KO/WT (MCF7 cells; [5]): -4.127

QHLLLrGPPPGSANPPrLVSSYrLK
CARM1 140-608/WT (MCF7 CARM1 KO cells; [13]): -1.091
KO/WT (MCF7 CARM1 KO cells; [14]): -1.563
Fold change KO/WT (MCF7 cells; [12]): -1.782

GVGPPrGALVrGTPVrGAITR
CARM1 140-608/WT (MCF7 CARM1 KO cells; [10]): 0.2467
KO/WT (MCF7 CARM1 KO cells; [11]): 0.3361
Fold change KO/WT (MCF7 cells; [12]): -0.04858
